Experiments:
Format in all cases: cell-based
[1] = test system: human progesterone receptor isoform PR-B; test: PR-B transactivation of MMTV-LUC reporter, transient transfection; conditions: 10^-7 M progesterone
Procedure: The cells were then incubated with either progesterone or an inert vehicle (ethanol (ETOH)). Western immunoblot analysis using two PR specific monoclonal antibodies (B30 and AB52, available from Dean Edwards, University of Colorado) confirmed that no hPR-A was synthesized from our PR-B constructs.

PR-B = molecular target: T1, PR-B (Homo sapiens, UniProt P06401); test: PR-B regulation of TAT promoter; set-up: expressed in transfected cells; host or cells: CV-1, HepG2 (PRE2 tk-LUC); HeLa, also HepG2 and CV-1 (TAT promoter); conditions: data not shown
T1 sequence (P06401 1-933): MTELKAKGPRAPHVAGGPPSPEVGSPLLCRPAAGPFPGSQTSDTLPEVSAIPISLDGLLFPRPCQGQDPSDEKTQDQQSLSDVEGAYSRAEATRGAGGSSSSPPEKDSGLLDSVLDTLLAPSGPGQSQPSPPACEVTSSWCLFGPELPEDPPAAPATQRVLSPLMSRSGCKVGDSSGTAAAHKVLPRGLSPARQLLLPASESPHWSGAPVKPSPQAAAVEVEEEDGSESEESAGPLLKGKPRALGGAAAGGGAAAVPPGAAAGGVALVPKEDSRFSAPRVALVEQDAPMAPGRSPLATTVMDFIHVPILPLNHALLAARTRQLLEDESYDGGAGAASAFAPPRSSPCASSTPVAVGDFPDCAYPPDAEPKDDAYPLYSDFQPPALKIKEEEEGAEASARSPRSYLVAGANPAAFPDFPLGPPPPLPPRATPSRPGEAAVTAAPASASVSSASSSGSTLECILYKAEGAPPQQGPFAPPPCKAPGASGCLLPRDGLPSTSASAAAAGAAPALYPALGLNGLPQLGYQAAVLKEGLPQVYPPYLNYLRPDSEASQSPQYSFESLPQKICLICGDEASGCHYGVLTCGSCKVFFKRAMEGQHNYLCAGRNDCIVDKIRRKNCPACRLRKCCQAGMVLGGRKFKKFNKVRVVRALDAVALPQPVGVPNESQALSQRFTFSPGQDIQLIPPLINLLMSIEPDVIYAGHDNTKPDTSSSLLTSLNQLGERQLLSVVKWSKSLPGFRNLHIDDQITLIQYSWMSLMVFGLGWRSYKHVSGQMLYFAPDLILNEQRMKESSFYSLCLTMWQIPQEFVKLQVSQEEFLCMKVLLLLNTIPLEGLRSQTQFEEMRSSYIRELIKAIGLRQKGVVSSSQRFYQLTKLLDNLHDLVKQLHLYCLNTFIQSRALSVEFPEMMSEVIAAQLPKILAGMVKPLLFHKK
Procedure: FIGS. 4A-4B are a series of graphs showing CV-1 ([…]) or HepG2 (FIG. 4B) cells that were transiently transfected with either […] of phPR-B or phPR-A alone, or phPR-B in the presence of increasing concentrations of phPR-A, together with 5 µg/ml of the PRE2 tk-LUC reporter and 5 µg/ml of pCH110 as an internal control. HeLa cells (FIG. 4C) were transfected with either phPR-B or phPR-A together with 5 µg/ml of the pTAT2950 reporter and 5 µg/ml of pCH110 as an internal control. […] The relative luciferase activity is calculated by dividing the normalized luciferase value at a given point by that obtained in the absence of transfected receptor or ligand. The data shown represent the mean +/- average deviation from the mean of triplicate estimations;
The 2.9 Kb fragment resulting from the digestion of the pTAT-CAT plasmid, and the 6.7 Kb fragment, containing the luciferase gene and the backbone resulting from MMTV-LUC digestion products, were ligated to create the plasmid TAT2950-LUC.
Cells were seeded in 12-well, 96-well or 10 cm tissue culture plates. […] 20 μg of DNA/ml of transfection buffer were used in each transfection reaction. […]

[2] = test system: glucocorticoid receptor (GR); test: GR transcriptional activity on MMTV-LUC, CV-1 cells, GR co-expressed with PR-A; conditions: 1440 min
Procedure: Cells were seeded in 12-well, 96-well or 10 cm tissue culture plates. […] 20 μg of DNA/ml of transfection buffer were used in each transfection reaction. In this mix, the concentration of the luciferase plasmids and that of the internal control plasmid pCH110 (Pharmacia, Inc.), which contains the gene for the β-galactosidase enzyme, remained constant ([…] of each plasmid DNA), while the receptor plasmid concentration varied as indicated for each experiment. Different amounts of receptor parental plasmid, pSV2-neo (Dr. Bert O'Malley, Baylor College of Medicine, Houston, Tex.) was included to keep constant the total amount of the SV40 enhancer vectors. pGEM4 plasmid DNA (Promega Biotech, Madison, Wis.) was added to balance the total DNA concentration to 20 g/reaction. For the 96-well plate experiments, transfections were performed on a Biomek 1000 Automated Laboratory Workstation (Beckman Instruments, Fullerton, Calif.).
Cells were seeded 24 hours prior to transfection in the fiat-bottom tissue culture plates ([…]) in phenol red-free DMEM containing 10% FCS. […] Using calcium phosphate co-precipitation, DNA solution was added dropwise with vortexing into an equal volume of 2X HBS pH 6.9 (280 mM NaCl. 50 mM HEPES, 1.5 mM Na2 HPO4) and precipitates were allowed to form for 20 minutes. Cells were transfected ( […] of DNA mix/well) for 6 hours and then washed with phosphate-bufferedsaline (PBS) to remove the precipitate. Cells were incubated for an additional 24 hours in phenol red-free medium containing 10% charcoal-treated FCS, with or without hormones as indicated in the text. Cell extracts were prepared as described by Berger et al., Supra, and assayed for luciferase and β-galactosidase activities. All determinations were performed in triplicates in at least two independent experiments, and were normalized for transfection efficiency by using β-galactosidase as an internal control.

SMILES: CC(=O)[C@H]1CC[C@H]2[C@@H]3CCC4=CC(=O)CC[C@]4(C)[C@H]3CC[C@]12C [progesterone]
- progesterone mediated activation of the MMTV promoter ([1]; CV-1 cells, PR-B, FIG. 2A): permitted progesterone mediated activation of the MMTV promoter
- activation of the MMTV promoter by PR-B ([1]; HepG2 cells, FIG. 2C): both PR-A and PR-B functioned as efficient activators
- TAT promoter response (PR-B; CV-1, PR-B): unresponsive to either receptor subtype
- TAT promoter response to progesterone (PR-B; HepG2, phPR-B): responded to progesterone
- reduction in GR activity ([2]; GR and PR-A, 10^-9 M progesterone, 5×10^-8 M dexamethasone, FIG. 6, 0.001 µM): 50%
- GR activity, of induced control levels ([2]; presence of progesterone and dexamethasone, PR-A co-expressed, FIG. 5A, 0.1 µM): 2%
